This is an account of results in US20110182946A1, “Formation of Nanostructured Particles of Poorly Water Soluble Drugs and Recovery by Mechanical Techniques” (BOARD OF REGENTS, THE UNIVERSITY OF TEXAS SYSTEM, priority 2008, published 2011).

The thermodynamic solubility is solubility found after equilibrating the solid with the medium. What is called solubility is the dissolved amount per volume that the medium holds. Low readings indicate little dissolved substance, high ones much dissolved substance.

Series [1] can be described thus: Equilibrium solubility of crystalline ITZ. The series is classed as physicochemical. Conditions: thermodynamic from solid.
For series [2] the following is noted: pH 6.8 buffer without addition of 0.17% SDS; cited from earlier work.

SMILES strings stand for the structures. Converted amounts (≈) assume the structure as drawn.

The compound `CCC(C)n1ncn(-c2ccc(N3CCN(c4ccc(OCC5COC(Cn6cncn6)(c6ccc(Cl)cc6Cl)O5)cc4)CC3)cc2)c1=O` (stereo not drawn) [ITZ, itraconazole] showed a solubility (thermodynamic) in series [1] (acidic media, pH 1.2, simulated gastric fluid) of 4.4 µg/mL (≈ 6.24 µM). Moreover, the solubility at 18 h in series [1] (pH 6.8 phosphate buffer with 0.17% SDS, aqueous with cosolvent or surfactant or cyclodextrin, pH 6.8 media with 0.17% SDS, 37.2° C.) was 14 µg/mL (≈ 19.8 µM). In addition, the equilibrium solubility entry in series [2] is listed as “about 1 ng/mL”.
